{
  "source": "patent US8318504B2",
  "about": "“MRP2 efflux pathway prognostic method” (priority 2009, dated 2012)",
  "molecular_target": "T1, OATP1B3 (Homo sapiens, UniProt Q9NPD5)",
  "T1 construct": "expressed in transfected cells; host or cells: CHO cells (stably transfected; Treiber et al. 2007)",
  "T1 sequence (Q9NPD5 1-702)": "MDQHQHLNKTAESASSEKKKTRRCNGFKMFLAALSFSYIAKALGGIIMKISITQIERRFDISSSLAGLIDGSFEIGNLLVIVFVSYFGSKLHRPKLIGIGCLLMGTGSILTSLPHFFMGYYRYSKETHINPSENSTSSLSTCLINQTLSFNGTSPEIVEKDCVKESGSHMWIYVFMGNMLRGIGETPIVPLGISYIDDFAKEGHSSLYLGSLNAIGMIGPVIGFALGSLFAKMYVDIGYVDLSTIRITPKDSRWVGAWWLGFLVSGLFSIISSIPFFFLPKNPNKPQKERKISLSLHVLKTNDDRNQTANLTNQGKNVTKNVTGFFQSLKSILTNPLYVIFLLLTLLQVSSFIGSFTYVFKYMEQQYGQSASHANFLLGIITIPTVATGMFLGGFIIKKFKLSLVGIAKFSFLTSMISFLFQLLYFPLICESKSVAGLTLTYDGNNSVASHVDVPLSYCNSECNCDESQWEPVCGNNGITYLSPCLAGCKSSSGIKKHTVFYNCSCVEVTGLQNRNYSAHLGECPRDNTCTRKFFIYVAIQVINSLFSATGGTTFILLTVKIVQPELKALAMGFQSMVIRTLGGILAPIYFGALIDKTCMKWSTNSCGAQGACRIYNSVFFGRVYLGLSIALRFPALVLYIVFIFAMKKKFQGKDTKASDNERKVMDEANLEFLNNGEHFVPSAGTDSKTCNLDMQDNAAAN",
  "test": "Uptake of CLF into CHO cells expressing OATP1B3",
  "assay_type": "cell-based",
  "parameters": "Vmax of OATP1B3 mediated CLF transport: unit not given here",
  "method": "cDNA for human NTCP [Hagenbuch et al., J Clin Invest 1994 March; 93(3): 1326-1331] was cut with EcoRV and HindI and the coding region ligated into pcDNA5/FRT (Invitrogen, Life-Technologies, Carlsbad, Calif.). CHO FlpIn cells (Invitrogen, Life-Technologies) were transfected with the resulting construct using Lipofectamine® 2000 (Invitrogen, Life-Technologies). Stably transfected cells were selected with 550 μg Hygromycin-B in HAM-F12 medium (Gibco, Invitrogen, Life-Technologies). Transfected cells were cloned with the limiting dilution method. […] To further characterize the cloned cells, immunofluorescence localization of NTCP using a polyclonal antibody against NTCP [Kullak-Ublick G et al., Gastroenterology 1997 October; 113(4):1295-1305] was performed as described by Huber R D et al. [Am J Physiol Cell Physiol 2007 February; 292(2):[…]-[…]]. CHO cells expressing OATP1B1, OATP1B3 and OATP2B1 were described previously [Treiber et al., DMD 35:1400-1407, 2007]. For all transport experiments, cells grown on 3 cm culture dishes were cultured for 24 hours in media supplemented with 5 mmol/L sodium-butyrate to increase expression levels of transfected transporters [Palermo D P et al., J Biotechnol 1991 June; 19(1):35-47]. • Transport experiments with uptake of radioactively labeled substrates: These experiments were performed as described by Huber R D et al. […] Uptake was performed in the same buffers as for the radioactive substrates above. For visualization of CLF uptake, cells were immediately inspected with a Leica-DM-IRBE-inverted-microcope (Leica-Microsystems, Wetzlar, Germany) equipped with a Hamamatsu-ORKA-ER-camera (Hamamatsu-Photonoics, Japan). To determine uptake of CLF, cells were solubilized by the addition of 2 ml 1% (w/v) Triton-X-100. After complete solubilization, 1.5 ml was used to measure fluorescence in a Perkin-Elmer LS-5 luminescence-spectrometer set at λexe 486 nm (slit 10 nm) and λem 520 nm (slit 5 nm). Protein was determined with the bicinchoninic acid method using a kit from Interchim (Montfuçon, France). […]",
  "data": [
    {"smiles": "CC(CCC(=O)NC(CCCCNC(=S)Nc1ccc(-c2c3ccc(=O)cc-3oc3cc(O)ccc23)c(C(=O)O)c1)C(=O)O)C1CCC2C3C(O)CC4CC(O)CCC4(C)C3CC(O)C12C", "note": "(stereo not drawn) [CLF, cholyl lysyl fluorescein]", "values": [
      {"measurement": "uptake of CLF into OATP1B3 expressing cells", "setting": "1 μmol/L CLF, 1 or 5 minutes", "result": "clear uptake"},
      {"measurement": "Vmax of OATP1B3 mediated CLF transport", "setting": "45 seconds, mean of three independent determinations", "result": "213±42"},
      {"measurement": "Km at 45 seconds", "setting": "human, CHO cells expressing OATP1B3, 45 seconds, mean of three independent determinations, read-out: Km of OATP1B3 mediated CLF transport", "result": "4.6 ± 2.7", "unit": "µM"}
    ]}
  ]
}
